Data set [1] can be described thus: Pharmacokinetics of dC3 and β-lap after intravenous injection. To be noted: Sprague Dawley, rat, plasma, 50 mg/kg (β-lap equivalent dose), β-lap once converted from dC3, read-out: pharmacokinetic half-life. The class given is in vivo, Sprague Dawley rats. The method, then:
The comparison of pharmacokinetics of different preparations in Sprague Dawley rats (n=3 per group) was performed. […] The blood samples were centrifuged at 4° C. and 1000 rpm for 3 minutes. The plasma concentrations of β-lap and dC3 were analyzed by LC-MS/MS (AB Sciex QTRAP 5500, USA).

For a further data set, the system named is SW1990/GEM (KRAS^G12D). The data set can be described thus: In vitro cytotoxicity, MTS assay. The format is cell-based. The method, then: (§1) Briefly, four pancreatic cancer cell lines were firstly inoculated into a 96-well culture plate (4000 cells/well), each well containing 0.1 mL of cell culture medium. […] PLE (1 U/mL) was added concurrently with the dC3 preparation. The cells were further incubated for 12 hours, then the culture medium containing drugs was removed and new culture medium without drug was added. Relative survival curves of the four pancreatic cancer cell lines were obtained using the MTS assay (Promega, USA). The mean value of 6 wells per treatment was calculated and the treatment/control (T/C) value was calculated as a percentage of cell survival rate. All calculations were performed by GraphPad Prism 7 software (GraphPad Software, USA).
(§2) The relative survival profiles of pancreatic cancer cells SW1990 (KRAS^G12D) and SW1990/GEM (KRAS^G12D) were also measured using the same method. SW1990/GEM was cultured in a culture medium with 50 μM gemcitabine to maintain drug resistance.

In a further data set the test system is SW1990 (KRAS^G12D). The data set can be described thus: In vitro cytotoxicity, MTS assay. The class given is cell-based. The method, then: as §1, §2
Data set [2] is described as follows: Solubility and apparent drug concentration. The format is physicochemical.
Data set [3] relates to MIA PaCa-2 control. The data set can be described thus: In vitro cytotoxicity, MTS assay. The class given is cell-based, human. To be noted: PLE 1 U/mL; slightly higher than β-lap. From the text:
KRAS mutant cells MIA PaCa-2 (KRAS^G12C) and KRAS wild-type (KRAS^WT) BxPC-3 were selected for experiments. The expression levels of mutant KRAS in MIA PaCa-2 and BxPC-3 cells were manipulated. According to the supplier's protocol, MIA PaCa-2 cells with low expression level of KRAS were realized by lentiviral-mediated construction and transfection of pCDH-KRas-shRNA; control MIA PaCa-2 cells were realized by lentiviral-mediated transfection of pCDH vector; BxPC-3 cells with high expression level of KRAS were realized by lentiviral-mediated construction and transfection of pCDH-KRas-G12V, and control BxPC-3 cells were realized by lentiviral-mediated transfection of pCDH vector. All plasmids were purchased from […] Addgene (USA). The plasmid was transfected into the cells using transfection reagents (Promega, USA). 1 μg/mL puromycin was added to the culture medium for 48 hours to select stable transfected cell lines. Cells were represented as MIA PaCa-2 control, MIA PaCa-2 KRAS KD, BxPC-3 control and BxPC-3 KRAS^G12V.
Briefly, four pancreatic cancer cell lines were firstly inoculated into a 96-well culture plate (4000 cells/well), each well containing 0.1 mL of cell culture medium. […] The mean value of 6 wells per treatment was calculated and the treatment/control (T/C) value was calculated as a percentage of cell survival rate. […]

In data set [4] the test system is porcine liver esterase (PLE). The data set can be described thus: Conversion of dC3 to β-lap at different BSA concentrations. The class given is in vitro ADME. The method, then: In order to study the effect of BSA on the conversion of dC3 to β-lap catalyzed by an esterase, dC3 was dissolved in DMSO (final DMSO concentration <0.5%), and then added dropwise to a solution of 1 M sodium salicylate, 1 U/mL porcine liver esterase (PLE) and different concentrations of BSA. The solution was shaken in a water bath at 60 rpm at 37° C. At predetermined time points (5, 10, 15, 30, 45, 60, 90, and 120 minutes), each 0.5 mL of release medium were taken out and replaced with an equal volume of fresh medium. The removed release medium was mixed with 0.5 mL of acetonitrile, and centrifuged for 10 minutes at 10,000 rpm to remove denatured proteins. The concentration of β-lap was analyzed by H PLC.
In order to study whether the effect of BSA on dC3-β-lap conversion catalyzed by an esterase will change in the presence of the polymer, the above-mentioned experiments were also conducted with the amount of PEG5K-β-PLA5K proportional to micelle preparation. Other conditions remained unchanged.

The test system of data set [5] is MIA PaCa-2 control. The data set is described as follows: BSA macropinocytosis (6-TAMRA-BSA uptake), flow cytometry and confocal microscopy. The class given is cell-based, human. To be noted: 75 μM EIPA pretreatment 30 minutes. As to the method: (§3) 4 pancreatic cancer cell lines, MIA PaCa-2 control, MIA PaCa-2 KRAS KD, BxPC-3 control and BxPC-3 KRAS^G12V (10^5 cells per well, 1 mL) were inoculated in a 12-well microplate (Corning, N.Y., USA) and incubated at 37° C. and 5% CO2. When the cell density reached approximately 65%, the cell culture medium was replaced with a serum-free culture medium. After 12 hours, the culture medium was removed again and replaced with DMEM containing 1 mg/mL 6-TAMRA-BSA (500 μL/well). After incubated for another 4 hours, the cells were washed, digested and suspended in PBS (400 μL) and subjected to fluorescence analysis on a flow cytometer (BD, FACS Calibur, USA) using a 544 nm laser excitation and a 575 nm emission filter. Based on forward scattering and side scattering analysis, viable cells (10,000 cells/sample) were counted to detect the fluorescence intensity of the cells. For the EIPA (a known macropinocytosis inhibitor) inhibition experiment, cells were incubated with serum-free culture medium for 12 hours, pretreated with 75 μM of EIPA for 30 minutes, then replaced with fresh DMEM containing 1 mg/ml 6-TAMRA-BSA was added (500 μL/well).
(§4) Cells were cultured and treated as described above and grown on coverslips. After cell nuclei were stained with DAPI, the cells grown on the coverslips were observed under a multiphoton confocal Ti-E A1RMP inverted microscope (Nikon, Japan).

A further data set relates to BxPC-3 KRAS^G12V. Described as above. The class given is cell-based, human. To be noted: 75 μM EIPA pretreatment 30 minutes. The method, then: as §3, §4
The next data set has as its system MIA PaCa-2 KRAS KD. The description is as above. The class given is cell-based, human. To be noted: 75 μM EIPA pretreatment 30 minutes. The method, then: as §3, §4
Another data set has as its system BxPC-3 control. The description is as above. The class given is cell-based, human. To be noted: 75 μM EIPA pretreatment 30 minutes. The method, then: as §3, §4

The text below walks through data of US20220118057A1, “ALBUMIN NANOPARTICLES, THE MAKING METHOD, AND USES THEREOF” (NOVAGENESIS THERAPEUTIX (HK) LIMITED, priority 2019, published 2022).

A value given as a limit tells only on which side of the number the result lay.

As for `CC1(C)CCC2=C(O1)c1ccccc1C(=O)C2=O` [β-lap, β-lapachone], the half-life in data set [1] was ~24 min. Further, the inhibition of cells entry in the data set with SW1990/GEM (KRAS^G12D) and with SW1990 (KRAS^G12D) was “effectively inhibit” throughout.

As to `CCC(=O)Oc1c2c(c3ccccc3c1OC(=O)CC)OC(C)(C)CC2` [dC3], the solubility in data set [2] is < 0.1 µg/mL. In addition, in the data set with MIA PaCa-2 control [3], the “IC50 values, compared among dC3 treatments” value is “comparable”. For the same compound, the dC3-β-lap conversion ratio entry in [4] (BSA introduced at a low BSA-dC3 ratio, PLE) is on record as “significantly reduced”. Further, in data set [4] (BSA plus small amount of PEG-b-PLA proportional to micelle preparation), the dC3-β-lap conversion result is recorded as “accelerated”.

For `CCN(c1nc(N)c(C(=O)N=C(N)N)nc1Cl)C(C)C` [EIPA, 5-[N-ethyl-N-isopropyl] amiloride], the “effect on 6-TAMRA-BSA uptake (macropinocytosis)” value with MIA PaCa-2 control [5] and in the data set on BxPC-3 KRAS^G12V was “can be inhibited” each time. Also, the “effect on BSA uptake” value in the data set on MIA PaCa-2 KRAS KD and with BxPC-3 control was “almost had no effect” in each case.
